Laboratory results reported in the supplement of paper PMC8882468.
± gives the standard deviation of the averaged measurements.

The compounds below were run on HCI-023 (organoid from a triple-negative breast cancer xenograft) (assay: CTG-3D luminescence at 96 h relative to day-0 seeding control (ratio to day 0); higher = more growth / less cytotoxicity; PDxO 3D drug screen, 96 h, CTG-3D normalised to day-0 seeding control.). Conditions: 100 µM; days in culture: 111.
With `O=C(O)C1(C(=O)O)CCC1.[NH2-].[NH2-].[Pt+2]` [carboplatin] the “CTG-3D luminescence at 96 h” value was 0.106.
In the case of `COc1cc2c(Oc3ccc4[nH]c(C)cc4c3F)ncnc2cc1OCCCN1CCCC1` [cediranib], the “CTG-3D luminescence at 96 h” value is reported as -0.00068.
In the case of `C[C@@H]1COCCN1c1cc(C2([S@](C)(=N)=O)CC2)nc(-c2cc[nH]c3nccc2-3)n1` [ceralasertib], the “CTG-3D luminescence at 96 h” value is reported as 0.252.
`Cc1cc(Nc2ncc(Cl)c(Nc3ccccc3S(=O)(=O)C(C)C)n2)c(OC(C)C)cc1C1CCNCC1` [ceritinib] was tested, and the “CTG-3D luminescence at 96 h” value was -0.00268.
With `O=C(c1ccc(F)c(F)c1Nc1ccc(I)cc1F)N1CC(O)([C@@H]2CCCCN2)C1` [cobimetinib] the “CTG-3D luminescence at 96 h” value was -0.00131.
With `C[C@H](NC(=O)CCC(F)(F)F)C(=O)N[C@@H]1C(=O)N(CCO)c2ncccc2-c2ccccc21` [crenigacestat] the “CTG-3D luminescence at 96 h” value was 0.926.
For `COc1cccc2c1C(=O)c1c(O)c3c(c(O)c1C2=O)C[C@@](O)(C(=O)CO)C[C@@H]3O[C@H]1C[C@H](N)[C@H](O)[C@H](C)O1` [doxorubicin], the “CTG-3D luminescence at 96 h” value was 0.00755.
`C[C@]12CC[C@@H]3c4ccc(O)cc4C[C@@H](CCCCCCCCC[S+]([O-])CCCC(F)(F)C(F)(F)F)[C@H]3[C@@H]1CC[C@@H]2O` (stereo partly specified) [fulvestrant] was tested, and the “CTG-3D luminescence at 96 h” value was 0.911.
In the case of `Nc1ccn([C@@H]2O[C@H](CO)[C@@H](O)C2(F)F)c(=O)n1` [gemcitabine], the “CTG-3D luminescence at 96 h” value is reported as 0.0585.

Same assay, conditions: 100 µM; days in culture: 128
For `O=C(O)C1(C(=O)O)CCC1.[NH2-].[NH2-].[Pt+2]` [carboplatin], the “CTG-3D luminescence at 96 h” value was 0.0724 ± 0.044.
In the case of `COc1cc2c(Oc3ccc4[nH]c(C)cc4c3F)ncnc2cc1OCCCN1CCCC1` [cediranib], the “CTG-3D luminescence at 96 h” value is reported as -0.00109 ± 0.00021.
`C[C@@H]1COCCN1c1cc(C2([S@](C)(=N)=O)CC2)nc(-c2cc[nH]c3nccc2-3)n1` [ceralasertib] was tested, and the “CTG-3D luminescence at 96 h” value was 0.38 ± 0.18.
`Cc1cc(Nc2ncc(Cl)c(Nc3ccccc3S(=O)(=O)C(C)C)n2)c(OC(C)C)cc1C1CCNCC1` [ceritinib] was tested, and the “CTG-3D luminescence at 96 h” value was -0.00332 ± 0.00062.
`O=C(c1ccc(F)c(F)c1Nc1ccc(I)cc1F)N1CC(O)([C@@H]2CCCCN2)C1` [cobimetinib] was tested, and the “CTG-3D luminescence at 96 h” value was -0.000598 ± 0.00044.
For `C[C@H](NC(=O)CCC(F)(F)F)C(=O)N[C@@H]1C(=O)N(CCO)c2ncccc2-c2ccccc21` [crenigacestat], the “CTG-3D luminescence at 96 h” value was 1.13 ± 0.32.
With `COc1cccc2c1C(=O)c1c(O)c3c(c(O)c1C2=O)C[C@@](O)(C(=O)CO)C[C@@H]3O[C@H]1C[C@H](N)[C@H](O)[C@H](C)O1` [doxorubicin] the “CTG-3D luminescence at 96 h” value was 0.00367 ± 0.0022.
With `C[C@]12CC[C@@H]3c4ccc(O)cc4C[C@@H](CCCCCCCCC[S+]([O-])CCCC(F)(F)C(F)(F)F)[C@H]3[C@@H]1CC[C@@H]2O` (stereo partly specified) [fulvestrant] the “CTG-3D luminescence at 96 h” value was 1.11 ± 0.18.
`Nc1ccn([C@@H]2O[C@H](CO)[C@@H](O)C2(F)F)c(=O)n1` [gemcitabine] was tested, and the “CTG-3D luminescence at 96 h” value was 0.0826 ± 0.03.

Same assay, conditions: 625 fM; days in culture: 111
In the case of `O=C(O)C1(C(=O)O)CCC1.[NH2-].[NH2-].[Pt+2]` [carboplatin], the “CTG-3D luminescence at 96 h” value is reported as 1.16.
With `COc1cc2c(Oc3ccc4[nH]c(C)cc4c3F)ncnc2cc1OCCCN1CCCC1` [cediranib] the “CTG-3D luminescence at 96 h” value was 1.41.
For `C[C@@H]1COCCN1c1cc(C2([S@](C)(=N)=O)CC2)nc(-c2cc[nH]c3nccc2-3)n1` [ceralasertib], the “CTG-3D luminescence at 96 h” value was 1.5.
`Cc1cc(Nc2ncc(Cl)c(Nc3ccccc3S(=O)(=O)C(C)C)n2)c(OC(C)C)cc1C1CCNCC1` [ceritinib] was tested, and the “CTG-3D luminescence at 96 h” value was 1.19.
`O=C(c1ccc(F)c(F)c1Nc1ccc(I)cc1F)N1CC(O)([C@@H]2CCCCN2)C1` [cobimetinib] was tested, and the “CTG-3D luminescence at 96 h” value was 1.06.
`C[C@H](NC(=O)CCC(F)(F)F)C(=O)N[C@@H]1C(=O)N(CCO)c2ncccc2-c2ccccc21` [crenigacestat] was tested, and the “CTG-3D luminescence at 96 h” value was 1.3.
With `COc1cccc2c1C(=O)c1c(O)c3c(c(O)c1C2=O)C[C@@](O)(C(=O)CO)C[C@@H]3O[C@H]1C[C@H](N)[C@H](O)[C@H](C)O1` [doxorubicin] the “CTG-3D luminescence at 96 h” value was 1.45.
`C[C@]12CC[C@@H]3c4ccc(O)cc4C[C@@H](CCCCCCCCC[S+]([O-])CCCC(F)(F)C(F)(F)F)[C@H]3[C@@H]1CC[C@@H]2O` (stereo partly specified) [fulvestrant] was tested, and the “CTG-3D luminescence at 96 h” value was 1.61.
`Nc1ccn([C@@H]2O[C@H](CO)[C@@H](O)C2(F)F)c(=O)n1` [gemcitabine] was tested, and the “CTG-3D luminescence at 96 h” value was 1.43.

Same assay, conditions: 625 fM; days in culture: 128
For `O=C(O)C1(C(=O)O)CCC1.[NH2-].[NH2-].[Pt+2]` [carboplatin], the “CTG-3D luminescence at 96 h” value was 1.57 ± 0.52.
For `COc1cc2c(Oc3ccc4[nH]c(C)cc4c3F)ncnc2cc1OCCCN1CCCC1` [cediranib], the “CTG-3D luminescence at 96 h” value was 1.48 ± 0.27.
In the case of `C[C@@H]1COCCN1c1cc(C2([S@](C)(=N)=O)CC2)nc(-c2cc[nH]c3nccc2-3)n1` [ceralasertib], the “CTG-3D luminescence at 96 h” value is reported as 1.35 ± 0.12.
`Cc1cc(Nc2ncc(Cl)c(Nc3ccccc3S(=O)(=O)C(C)C)n2)c(OC(C)C)cc1C1CCNCC1` [ceritinib] was tested, and the “CTG-3D luminescence at 96 h” value was 1.65 ± 0.49.
In the case of `O=C(c1ccc(F)c(F)c1Nc1ccc(I)cc1F)N1CC(O)([C@@H]2CCCCN2)C1` [cobimetinib], the “CTG-3D luminescence at 96 h” value is reported as 1.65 ± 0.51.
`C[C@H](NC(=O)CCC(F)(F)F)C(=O)N[C@@H]1C(=O)N(CCO)c2ncccc2-c2ccccc21` [crenigacestat] was tested, and the “CTG-3D luminescence at 96 h” value was 1.53 ± 0.55.
In the case of `COc1cccc2c1C(=O)c1c(O)c3c(c(O)c1C2=O)C[C@@](O)(C(=O)CO)C[C@@H]3O[C@H]1C[C@H](N)[C@H](O)[C@H](C)O1` [doxorubicin], the “CTG-3D luminescence at 96 h” value is reported as 2.08 ± 0.2.
In the case of `C[C@]12CC[C@@H]3c4ccc(O)cc4C[C@@H](CCCCCCCCC[S+]([O-])CCCC(F)(F)C(F)(F)F)[C@H]3[C@@H]1CC[C@@H]2O` (stereo partly specified) [fulvestrant], the “CTG-3D luminescence at 96 h” value is reported as 1.75 ± 0.19.
With `Nc1ccn([C@@H]2O[C@H](CO)[C@@H](O)C2(F)F)c(=O)n1` [gemcitabine] the “CTG-3D luminescence at 96 h” value was 1.9 ± 0.23.
